Measured values published in ChEMBL document CHEMBL3351638, “Discovery of 6-[5-(4-fluorophenyl)-3-methyl-pyrazol-4-yl]-benzoxazin-3-one derivatives as novel selective nonsteroidal mineralocorticoid receptor antagonists” (Bioorg Med Chem, 2014).

Legend:
Progesterone receptor = target: T1, Progesterone receptor (Homo sapiens, UniProt P06401); experiment: Displacement of [[3H]-Progesterone from progesterone receptor (unknown origin) expressed in 293 cells after 16 hrs by scintillation counting; assay type: cell-based
T1 sequence (P06401 whole entry): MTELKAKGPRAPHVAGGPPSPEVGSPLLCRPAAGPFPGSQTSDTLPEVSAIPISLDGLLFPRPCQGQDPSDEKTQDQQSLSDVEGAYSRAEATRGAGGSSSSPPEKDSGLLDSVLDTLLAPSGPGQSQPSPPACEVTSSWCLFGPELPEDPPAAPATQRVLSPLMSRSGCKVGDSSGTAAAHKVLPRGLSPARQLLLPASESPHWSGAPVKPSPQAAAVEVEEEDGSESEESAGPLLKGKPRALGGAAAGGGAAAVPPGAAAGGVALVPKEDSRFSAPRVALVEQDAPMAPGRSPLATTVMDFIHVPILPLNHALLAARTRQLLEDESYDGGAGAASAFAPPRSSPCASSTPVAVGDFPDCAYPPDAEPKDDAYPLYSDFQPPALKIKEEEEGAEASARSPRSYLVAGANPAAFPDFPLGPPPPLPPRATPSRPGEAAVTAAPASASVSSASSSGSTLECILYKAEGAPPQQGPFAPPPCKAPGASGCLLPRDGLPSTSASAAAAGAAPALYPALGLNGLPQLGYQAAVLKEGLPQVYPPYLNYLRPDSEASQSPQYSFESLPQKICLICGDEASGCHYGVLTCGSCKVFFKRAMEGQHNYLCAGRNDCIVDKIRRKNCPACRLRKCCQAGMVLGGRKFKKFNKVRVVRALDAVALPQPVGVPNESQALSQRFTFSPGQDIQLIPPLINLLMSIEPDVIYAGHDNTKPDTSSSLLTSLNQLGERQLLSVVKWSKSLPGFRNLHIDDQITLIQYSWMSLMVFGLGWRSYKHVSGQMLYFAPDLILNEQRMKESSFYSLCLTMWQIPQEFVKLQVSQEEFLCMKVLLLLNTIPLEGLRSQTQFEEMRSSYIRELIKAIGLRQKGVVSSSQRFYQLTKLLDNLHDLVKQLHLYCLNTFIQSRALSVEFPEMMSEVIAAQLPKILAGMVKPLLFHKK

[1] = Lipophilicity, log D of the compound at pH 7.4 by HPLC analysis; assay type: physicochemical; conditions: buffer
[2] = Clearance in Sprague-Dawley rat at 1 mg/kg, iv; assay type: ADME, organism-based; parameters: dose 1 mg/kg, route intravenous; conditions: in vivo
[3] = Volume of distribution at steady state in Sprague-Dawley rat at 1 mg/kg, iv; assay type: ADME, organism-based; parameters: dose 1 mg/kg, route intravenous; conditions: in vivo, read-out: Vdss
[4] = AUC (0 to 24 hrs) in Sprague-Dawley rat at 3 mg/kg, po; assay type: ADME, organism-based; parameters: time < 24 hr, dose 3 mg/kg, route oral; conditions: plasma
[5] = Mean residence time in Sprague-Dawley rat at 3 mg/kg, po; assay type: ADME, organism-based; parameters: dose 3 mg/kg, route oral; conditions: in vivo
[6] = Oral bioavailability in Sprague-Dawley rat at 3 mg/kg; assay type: ADME, organism-based; conditions: in vivo
Rattus norvegicus [7] = experiment: Toxicity in DOCA-salt hypertensive Wistar rat model assessed as change in heart rate at 100 mg/kg, po qd for 18 days measured 24 hrs post 7th and 14th last dose by tail-cuff method; assay type: organism-based; parameters: dose 100 mg/kg, route oral; conditions: in vivo
Rattus norvegicus [8] = experiment: Toxicity in DOCA-salt hypertensive Wistar rat model assessed as change in seminal vesicle weight at 100 mg/kg, po qd for 18 days measured 24 hrs post 7th and 14th last dose […]; assay type: organism-based; parameters: dose 100 mg/kg, route oral; conditions: in vivo
[9] = Metabolic stability in rat hepatic microsomes at 1 umol/L pre-incubated fro 5 mins at 37 degC before addition of NADPH-generating system by UV detection based HPLC method; assay type: ADME; conditions: liver microsomes, read-out: CLH
[10] = target: T2, Mineralocorticoid receptor (Homo sapiens, UniProt P08235)
T2 sequence (P08235 whole entry): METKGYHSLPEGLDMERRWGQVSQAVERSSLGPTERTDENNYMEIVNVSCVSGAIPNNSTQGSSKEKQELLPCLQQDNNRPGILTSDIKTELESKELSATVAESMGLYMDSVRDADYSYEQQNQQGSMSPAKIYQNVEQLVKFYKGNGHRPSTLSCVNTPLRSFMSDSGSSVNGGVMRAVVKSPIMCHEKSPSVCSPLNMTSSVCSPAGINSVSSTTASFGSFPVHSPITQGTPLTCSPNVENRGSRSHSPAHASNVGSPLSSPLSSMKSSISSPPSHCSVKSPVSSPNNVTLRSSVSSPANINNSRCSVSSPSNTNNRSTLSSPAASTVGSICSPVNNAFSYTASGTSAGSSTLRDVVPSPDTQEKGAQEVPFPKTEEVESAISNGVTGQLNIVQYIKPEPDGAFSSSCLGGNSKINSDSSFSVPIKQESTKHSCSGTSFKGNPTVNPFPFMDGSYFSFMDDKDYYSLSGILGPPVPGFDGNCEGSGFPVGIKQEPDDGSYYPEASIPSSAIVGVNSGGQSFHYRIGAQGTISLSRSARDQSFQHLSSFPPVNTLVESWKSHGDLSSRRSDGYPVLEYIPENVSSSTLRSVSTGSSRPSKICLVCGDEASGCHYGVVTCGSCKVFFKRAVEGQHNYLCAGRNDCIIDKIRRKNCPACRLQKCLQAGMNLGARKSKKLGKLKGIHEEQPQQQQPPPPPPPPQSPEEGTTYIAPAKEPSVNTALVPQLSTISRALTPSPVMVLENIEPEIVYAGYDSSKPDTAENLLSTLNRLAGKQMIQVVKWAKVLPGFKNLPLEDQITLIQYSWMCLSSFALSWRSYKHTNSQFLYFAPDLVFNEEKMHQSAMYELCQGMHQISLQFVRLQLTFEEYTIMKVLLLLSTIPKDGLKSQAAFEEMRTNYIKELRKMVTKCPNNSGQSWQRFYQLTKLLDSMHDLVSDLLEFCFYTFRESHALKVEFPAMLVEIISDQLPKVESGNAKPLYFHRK
Description: Antagonist activity at human mineralocorticoid receptor expressed in COS1 cells after 1 day by luciferase reporter gene assay

[11] = target: T2, Mineralocorticoid receptor; experiment: biochemical
Description: Displacement of [3H]aldosterone from human mineralocorticoid receptor expressed in 293 cells after 16 hrs by scintillation counting

Androgen receptor = target: T3, Androgen receptor (Homo sapiens, UniProt P10275); experiment: biochemical
T3 sequence (P10275 whole entry): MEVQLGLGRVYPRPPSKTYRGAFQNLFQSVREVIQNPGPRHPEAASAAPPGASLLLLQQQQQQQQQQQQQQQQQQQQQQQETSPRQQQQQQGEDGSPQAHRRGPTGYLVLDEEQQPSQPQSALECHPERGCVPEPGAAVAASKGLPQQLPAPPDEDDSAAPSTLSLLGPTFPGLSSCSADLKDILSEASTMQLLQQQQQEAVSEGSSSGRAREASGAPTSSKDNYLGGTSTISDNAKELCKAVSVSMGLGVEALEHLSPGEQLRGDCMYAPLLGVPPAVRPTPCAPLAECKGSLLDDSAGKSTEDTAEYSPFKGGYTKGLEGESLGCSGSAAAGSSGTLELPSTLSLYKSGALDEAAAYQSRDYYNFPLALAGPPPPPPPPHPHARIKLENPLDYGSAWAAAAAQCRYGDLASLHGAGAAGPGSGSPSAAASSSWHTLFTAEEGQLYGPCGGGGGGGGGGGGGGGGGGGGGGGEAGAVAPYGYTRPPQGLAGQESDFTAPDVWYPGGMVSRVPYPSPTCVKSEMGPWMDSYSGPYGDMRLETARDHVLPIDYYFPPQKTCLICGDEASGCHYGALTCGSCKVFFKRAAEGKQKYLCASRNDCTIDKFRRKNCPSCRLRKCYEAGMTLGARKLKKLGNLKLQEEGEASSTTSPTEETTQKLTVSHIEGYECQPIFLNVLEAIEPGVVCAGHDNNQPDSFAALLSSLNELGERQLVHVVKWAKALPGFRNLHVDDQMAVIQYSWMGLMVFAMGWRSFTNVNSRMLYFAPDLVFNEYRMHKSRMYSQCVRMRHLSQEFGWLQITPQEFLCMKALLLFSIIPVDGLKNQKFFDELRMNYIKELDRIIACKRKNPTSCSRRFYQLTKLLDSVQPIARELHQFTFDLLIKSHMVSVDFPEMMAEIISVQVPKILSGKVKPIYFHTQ
Description: Displacement of [3H]testosterone from androgen receptor (unknown origin) expressed in 293 cells after 16 hrs by scintillation counting

Glucocorticoid receptor = Glucocorticoid receptor (Homo sapiens, UniProt P04150); experiment: biochemical
Glucocorticoid receptor, sequence (P04150 whole entry, looked up): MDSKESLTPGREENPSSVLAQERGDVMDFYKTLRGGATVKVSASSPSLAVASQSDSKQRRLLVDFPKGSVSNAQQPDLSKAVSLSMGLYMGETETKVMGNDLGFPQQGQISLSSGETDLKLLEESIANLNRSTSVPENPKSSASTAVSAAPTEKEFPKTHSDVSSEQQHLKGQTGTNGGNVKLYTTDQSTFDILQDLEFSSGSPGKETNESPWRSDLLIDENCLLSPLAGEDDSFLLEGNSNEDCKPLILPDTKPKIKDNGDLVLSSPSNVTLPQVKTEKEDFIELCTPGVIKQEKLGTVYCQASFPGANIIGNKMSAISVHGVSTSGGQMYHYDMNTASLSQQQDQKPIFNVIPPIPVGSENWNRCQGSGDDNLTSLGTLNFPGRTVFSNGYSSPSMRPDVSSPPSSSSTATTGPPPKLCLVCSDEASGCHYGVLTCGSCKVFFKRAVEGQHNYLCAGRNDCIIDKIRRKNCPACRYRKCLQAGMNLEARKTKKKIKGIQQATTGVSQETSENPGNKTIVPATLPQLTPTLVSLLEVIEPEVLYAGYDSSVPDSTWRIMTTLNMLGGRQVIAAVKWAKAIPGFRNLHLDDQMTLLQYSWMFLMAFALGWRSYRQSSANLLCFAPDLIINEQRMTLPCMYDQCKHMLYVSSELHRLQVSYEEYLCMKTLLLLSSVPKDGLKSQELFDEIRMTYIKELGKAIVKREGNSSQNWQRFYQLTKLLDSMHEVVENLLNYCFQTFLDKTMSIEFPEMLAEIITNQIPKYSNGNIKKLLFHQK
Description: Displacement of [3H]-Dexamethasone from glucocorticoid receptor (unknown origin) expressed in 293 cells after 16 hrs by scintillation counting

In the case of Cc1nn(CC(F)(F)CO)c(-c2ccc(F)cc2)c1-c1ccc2c(c1)NC(=O)CO2, the IC50 (Progesterone receptor) is reported as over 10000 nM, the logD [1] is reported as 2.05 and the clearance [2] is reported as 16.5 mL/min/kg. For the same molecule, the Vd [3] was 1.36 L/kg, the AUC(0-t) at 24 h [4] was 662 ng·h/mL and the MRT [5] was 3.77 h. For the same molecule, the bioavailability [6] was 21.4%, the Activity (Rattus norvegicus [7]) was “Non-toxic” and the Activity (Rattus norvegicus [8]) was “Non-toxic”. It also gave a microsomal CLint at 1 µM [9] of over 42 µL/min/mg, an IC50 [10] of 71 nM and an IC50 [11] of 51 nM. For the same molecule, the IC50 (Androgen receptor) was over 10000 nM and the IC50 (Glucocorticoid receptor) was 2400 nM.
